Structures are written as SMILES.

Experiment [1] relates to myosin ATPase, Rabbit Psoas myofibrils. The experiment in a line: Myofibril ATPase assay, rabbit psoas (skeletal) myofibrils. Type of experiment: biochemical. Conditions: Rabbit Psoas Prep pCa 25 GEOM_MEAN; for Rabbit Psoas EC25 (Y75 value): concentration required to reduce myosin ATP-ase activity by 25%.
Experiment [2] deals with T1, myosin ATPase, Porcine Ventricle myofibrils (Sus scrofa, UniProt P79293).
T1 construct: Myofibrils from porcine cardiac muscle was isolated from the left ventricle of Yucatan minipigs; tissue Exemplar Genetics; host or cells: left ventricle of Yucatan minipigs, myofibrils
T1 sequence (P79293 whole entry): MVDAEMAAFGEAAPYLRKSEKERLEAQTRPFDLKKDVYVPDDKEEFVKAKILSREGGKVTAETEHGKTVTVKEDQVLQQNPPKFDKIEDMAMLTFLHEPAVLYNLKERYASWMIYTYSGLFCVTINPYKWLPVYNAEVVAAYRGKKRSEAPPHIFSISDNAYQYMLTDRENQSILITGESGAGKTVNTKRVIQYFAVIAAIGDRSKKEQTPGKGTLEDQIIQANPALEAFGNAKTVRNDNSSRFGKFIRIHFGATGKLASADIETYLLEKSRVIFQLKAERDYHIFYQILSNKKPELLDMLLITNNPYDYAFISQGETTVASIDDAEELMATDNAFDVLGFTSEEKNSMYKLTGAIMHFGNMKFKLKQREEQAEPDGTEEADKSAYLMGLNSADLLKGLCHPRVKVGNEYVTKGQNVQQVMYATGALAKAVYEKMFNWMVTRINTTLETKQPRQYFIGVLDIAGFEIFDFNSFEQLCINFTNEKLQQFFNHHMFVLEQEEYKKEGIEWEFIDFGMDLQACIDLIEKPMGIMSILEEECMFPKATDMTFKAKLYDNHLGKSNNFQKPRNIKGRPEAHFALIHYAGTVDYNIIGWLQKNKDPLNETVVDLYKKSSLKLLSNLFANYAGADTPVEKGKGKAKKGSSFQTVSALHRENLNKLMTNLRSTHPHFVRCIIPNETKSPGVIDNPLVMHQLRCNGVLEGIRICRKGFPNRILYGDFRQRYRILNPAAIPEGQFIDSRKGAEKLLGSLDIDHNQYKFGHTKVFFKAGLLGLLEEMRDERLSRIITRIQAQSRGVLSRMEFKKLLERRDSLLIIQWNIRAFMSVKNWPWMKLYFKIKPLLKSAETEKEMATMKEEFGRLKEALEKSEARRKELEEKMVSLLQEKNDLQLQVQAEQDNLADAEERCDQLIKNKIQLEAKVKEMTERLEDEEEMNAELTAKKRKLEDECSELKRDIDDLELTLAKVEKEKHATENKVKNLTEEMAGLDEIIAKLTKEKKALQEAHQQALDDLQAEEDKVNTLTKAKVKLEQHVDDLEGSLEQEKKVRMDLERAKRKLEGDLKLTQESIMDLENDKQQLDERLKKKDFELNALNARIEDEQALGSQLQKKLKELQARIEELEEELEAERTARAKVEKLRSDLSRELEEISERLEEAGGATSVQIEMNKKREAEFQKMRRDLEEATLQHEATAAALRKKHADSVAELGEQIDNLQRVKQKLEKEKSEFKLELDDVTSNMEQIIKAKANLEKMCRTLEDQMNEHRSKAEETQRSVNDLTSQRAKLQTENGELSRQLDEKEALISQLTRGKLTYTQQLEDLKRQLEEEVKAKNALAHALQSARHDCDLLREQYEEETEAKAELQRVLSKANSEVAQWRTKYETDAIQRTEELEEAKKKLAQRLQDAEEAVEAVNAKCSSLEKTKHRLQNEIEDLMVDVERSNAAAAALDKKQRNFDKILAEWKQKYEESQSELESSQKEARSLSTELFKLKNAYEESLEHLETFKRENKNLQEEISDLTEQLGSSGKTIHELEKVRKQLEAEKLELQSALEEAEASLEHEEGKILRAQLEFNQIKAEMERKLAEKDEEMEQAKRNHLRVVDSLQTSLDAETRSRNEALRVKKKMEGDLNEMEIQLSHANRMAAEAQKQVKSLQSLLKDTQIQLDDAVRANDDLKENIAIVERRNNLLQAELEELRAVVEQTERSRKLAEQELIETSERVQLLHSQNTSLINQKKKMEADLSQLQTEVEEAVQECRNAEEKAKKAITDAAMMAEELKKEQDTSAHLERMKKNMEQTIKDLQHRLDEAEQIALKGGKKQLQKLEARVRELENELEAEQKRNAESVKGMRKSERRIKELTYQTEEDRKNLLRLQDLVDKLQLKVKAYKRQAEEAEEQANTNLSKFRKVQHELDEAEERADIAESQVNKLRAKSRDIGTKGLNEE
The experiment in a line: Myofibril ATPase assay, porcine ventricle myofibrils. It counts as biochemical, porcine (Yucatan minipigs). The note with it: concentration required to reduce myosin ATP-ase activity by 25%; Porcine Ventricle Prep pCa 25 GEOM_MEAN. Put shortly:
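Myofibrils from Yucatan minipig left ventricle; ADP production coupled via PK-LDH to NADH loss, read kinetically at 340 nm every 1.5–2 min for 75 min in PIPES/MgCl2 pH 7.0 buffer. Slopes normalized to vehicle and fit to 4-parameter logistic; values are concentrations giving 75% (inhibition) or 125% (activation) of vehicle activity.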

Experiment [3] concerns myosin ATPase, Porcine Atria myofibrils. The experiment in a line: Myofibril ATPase assay, porcine atria myofibrils. Type of experiment: biochemical. Conditions: concentration required to reduce myosin ATP-ase activity by 25%; Porcine Atria Prep pCa 25 GEOM_MEAN.

`Cc1nccc2[nH]c(=O)n(CC(=O)N[C@@H](C)c3ncc(C#N)cc3F)c(=O)c12` [Compound 20, (S)-N-(1-(5-cyano-3-fluoropyridin-2-yl)ethyl)-2-(5-methyl-2,4-dioxo-1,4-dihydropyrido[4,3-d]pyrimidin-3(2H)-yl)acetamide]: the “Rabbit Psoas EC25 (Y75 value)” value in experiment [1] was 0.799 µM. The “Porcine Ventricle EC25 (Y75 value)” value in experiment [2] turned out to be 7.141 µM. Further, in experiment [3], the “Porcine Atria EC25 (Y75 value)” value was 2.095 µM.
For the molecule `C[C@H](NC(=O)Cn1c(=O)[nH]c2cnccc2c1=O)c1ccc(F)cc1F` [Compound 301, (S)-N-(1-(2,4-difluorophenyl)ethyl)-2-(2,4-dioxo-1,4-dihydropyrido[3,4-d]pyrimidin-3(2H)-yl)acetamide], the “Rabbit Psoas EC25 (Y75 value)” value in experiment [1] came to 5.422 µM. Besides, in experiment [2], the “Porcine Ventricle EC25 (Y75 value)” value is 100 µM. Also, the “Porcine Atria EC25 (Y75 value)” value in experiment [3] was 79 µM.
`C[C@H](NC(=O)[C@H](CC1CC1)n1c(=O)[nH]c2ccccc2c1=O)c1ccc(F)cc1F` (single isomer, unassigned) [Compound 501]: the “Rabbit Psoas EC25 (Y75 value)” value in experiment [1] is 84.531 µM. Further, in experiment [2], the “Porcine Ventricle EC25 (Y75 value)” value amounted to 50.21 µM. In addition, the “Porcine Atria EC25 (Y75 value)” value in experiment [3] came out at 100 µM.
Consider `C[C@H](NC(=O)Cn1c(=O)[nH]c2ccc(F)cc2c1=O)c1ncc(C#N)cc1F` (single isomer, unassigned) [Compound 8], for which, in experiment [1], the “Rabbit Psoas EC25 (Y75 value)” value was found to be 0.108 µM. The “Porcine Ventricle EC25 (Y75 value)” value in experiment [2] is 0.448 µM. Moreover, the “Porcine Atria EC25 (Y75 value)” value in experiment [3] came out at 0.094 µM.
Taken in the same sequence, the figures for `C[C@H](NC(=O)Cn1c(=O)[nH]c2ncncc2c1=O)c1ccc(F)cc1F` [Compound 95, (S)-N-(1-(2,4-difluorophenyl)ethyl)-2-(2,4-dioxo-1,4-dihydropyrimido[4,5-d]pyrimidin-3(2H)-yl)acetamide] were 100 µM, 100 µM and 100 µM.
The matching figures for `CC(NC(=O)Cn1c(=O)[nH]c2ccccc2c1=O)c1cc(F)ccc1F` (stereo not drawn) [Compound 525, N-(1-(2,5-difluorophenyl)ethyl)-2-(2,4-dioxo-1,4-dihydroquinazolin-3(2H)-yl)acetamide]: 5.727 µM, 100 µM and 23.51 µM.
Taken in the same sequence, the figures for `C[C@H](NC(=O)Cn1c(=O)[nH]c2cc(C(F)(F)F)ccc2c1=O)c1ccc(F)cc1F` [Compound 405, (S)-N-(1-(2,4-difluorophenyl)ethyl)-2-(2,4-dioxo-7-(trifluoromethyl)-1,4-dihydroquinazolin-3(2H)-yl)acetamide] were 100 µM, 100 µM and 100 µM.
Turning to `C[C@@H](NC(=O)Cn1c(=O)[nH]c2ccc(F)cc2c1=O)c1ncc(C#N)cn1` (single isomer, unassigned) [Compound 1], in experiment [1], the “Rabbit Psoas EC25 (Y75 value)” value was 0.59 µM. Also, the “Porcine Ventricle EC25 (Y75 value)” value in experiment [2] came out at 20.04 µM. In addition, in experiment [3], the “Porcine Atria EC25 (Y75 value)” value came to 0.699 µM.
On to `C[C@H](NC(=O)[C@H](CC1CC1)n1c(=O)[nH]c2ccccc2c1=O)c1ncc(F)cc1F` (single isomer, unassigned) [Compound 211], for which the “Rabbit Psoas EC25 (Y75 value)” value in experiment [1] stood at 100 µM. For the same molecule, the “Porcine Ventricle EC25 (Y75 value)” value in experiment [2] came to 100 µM. Moreover, the “Porcine Atria EC25 (Y75 value)” value in experiment [3] was found to be 100 µM.
`COc1cccc(C(C)NC(=O)Cn2c(=O)[nH]c3ccccc3c2=O)c1` (stereo not drawn) [Compound 522, 2-(2,4-dioxo-1,4-dihydroquinazolin-3(2H)-yl)-N-(1-(3-methoxyphenyl)ethyl)acetamide]: the “Rabbit Psoas EC25 (Y75 value)” value in experiment [1] came to 100 µM. The “Porcine Ventricle EC25 (Y75 value)” value in experiment [2] is 100 µM. In experiment [3], the “Porcine Atria EC25 (Y75 value)” value is 100 µM.
Consider `CC(C)CN(C(=O)Cn1c(=O)[nH]c2ccccc2c1=O)C(C)c1ccc(F)cc1F` (stereo not drawn) [Compound 506, N-(1-(2,4-difluorophenyl)ethyl)-2-(2,4-dioxo-1,4-dihydroquinazolin-3(2H)-yl)-N-isobutylacetamide], for which the “Rabbit Psoas EC25 (Y75 value)” value in experiment [1] was 65.656 µM. Also, in experiment [2], the “Porcine Ventricle EC25 (Y75 value)” value stood at 29.03 µM. In addition, the “Porcine Atria EC25 (Y75 value)” value in experiment [3] is 33.59 µM.
Taken in the same sequence, the figures for `COc1nccc2[nH]c(=O)n(CC(=O)N[C@@H](C)c3ccc(F)cc3F)c(=O)c12` [Compound 65, (S)-N-(1-(2,4-difluorophenyl)ethyl)-2-(5-methoxy-2,4-dioxo-1,4-dihydropyrido[4,3-d]pyrimidin-3(2H)-yl)acetamide] were 8.499 µM, 100 µM and 3.241 µM.
Taken in the same sequence, the figures for `C[C@@H](NC(=O)Cn1c(=O)[nH]c2ccccc2c1=O)c1ccc(Cl)cc1` (single isomer, unassigned) [Compound 526] were 100 µM, 100 µM and 100 µM.
Taken in the same sequence, the figures for `C[C@@H](NC(=O)Cn1c(=O)[nH]c2ccccc2c1=O)c1ccc(F)cc1F` [Compound 166, (R)-N-(1-(2,4-difluorophenyl)ethyl)-2-(2,4-dioxo-1,4-dihydroquinazolin-3(2H)-yl)acetamide] were 100 µM, 100 µM and 100 µM.
As for `C[C@H](NC(=O)Cn1c(=O)[nH]c2ccc(F)cc2c1=O)c1ccc(F)cc1F` [Compound 155, (S)-N-(1-(2,4-difluorophenyl)ethyl)-2-(6-fluoro-2,4-dioxo-1,4-dihydroquinazolin-3(2H)-yl)acetamide], in experiment [1], the “Rabbit Psoas EC25 (Y75 value)” value was determined as 0.073 µM. Besides, the “Porcine Ventricle EC25 (Y75 value)” value in experiment [2] came to 0.1805 µM. In experiment [3], the “Porcine Atria EC25 (Y75 value)” value turned out to be 0.0623 µM.
The matching figures for `Cc1c(F)ccc2[nH]c(=O)n(CC(=O)N[C@@H]3CCc4cc(C#N)cnc43)c(=O)c12` (single isomer, unassigned) [Compound 9]: 0.631 µM, 0.547 µM and 0.078 µM.
On to `Cc1cccc2[nH]c(=O)n(CC(=O)N[C@@H](C)c3ccc(F)cc3F)c(=O)c12` [Compound 73, (S)-N-(1-(2,4-difluorophenyl)ethyl)-2-(5-methyl-2,4-dioxo-1,4-dihydroquinazolin-3(2H)-yl)acetamide], for which the “Rabbit Psoas EC25 (Y75 value)” value in experiment [1] worked out at 0.0495 µM. Further, the “Porcine Ventricle EC25 (Y75 value)” value in experiment [2] was determined as 0.707 µM. In addition, the “Porcine Atria EC25 (Y75 value)” value in experiment [3] came out at 0.1149 µM.
Take `C[C@@H](NC(=O)Cn1c(=O)[nH]c2ccccc2c1=O)c1ccncc1F` (single isomer, unassigned) [Compound 100]: the “Rabbit Psoas EC25 (Y75 value)” value in experiment [1] came to 12.272 µM. In addition, in experiment [2], the “Porcine Ventricle EC25 (Y75 value)” value is 100 µM. Besides, the “Porcine Atria EC25 (Y75 value)” value in experiment [3] is 31.84 µM.
The matching figures for `C[C@H](NC(=O)[C@H](C)n1c(=O)[nH]c2ccc(F)c(F)c2c1=O)c1ccc(F)cc1F` [Compound 38, (S)-2-(5,6-difluoro-2,4-dioxo-1,4-dihydroquinazolin-3(2H)-yl)-N-((S)-1-(2,4-difluorophenyl)ethyl)propanamide]: 0.422 µM, 3.995 µM and 0.185 µM.
As for `CC(C)C[C@H](NC(=O)Cn1c(=O)[nH]c2ccccc2c1=O)c1ccc(F)cc1F` (single isomer, unassigned) [Compound 70], in experiment [1] (concentration required to increase myosin ATP-ase activity by 25%), the “Rabbit Psoas Y125 value (marked #)” value is 90.27^# μM. The “Porcine Ventricle EC25 (Y75 value)” value in experiment [2] turned out to be 100 µM. For the same molecule, the “Porcine Atria EC25 (Y75 value)” value in experiment [3] was 100 µM.
For `CC(NC(=O)Cn1c(=O)[nH]c2ccccc2c1=O)c1cncnc1` (stereo not drawn) [Compound 214, 2-(2,4-dioxo-1,4-dihydroquinazolin-3(2H)-yl)-N-(1-(pyrimidin-5-yl)ethyl)acetamide], the “Rabbit Psoas EC25 (Y75 value)” value in experiment [1] was found to be 100 µM. For the same molecule, the “Porcine Ventricle EC25 (Y75 value)” value in experiment [2] turned out to be 100 µM. In addition, the “Porcine Atria EC25 (Y75 value)” value in experiment [3] came to 100 µM.
On to `Cc1c(F)ccc2[nH]c(=O)n(CC(=O)N[C@H](C)c3ncc(C#N)cn3)c(=O)c12` (single isomer, unassigned) [Compound 3005], for which the “Rabbit Psoas EC25 (Y75 value)” value in experiment [1] is 2.34 µM. The “Porcine Ventricle EC25 (Y75 value)” value in experiment [2] stood at 11.35 µM. The “Porcine Atria EC25 (Y75 value)” value in experiment [3] worked out at 2.78 µM.
Turning to `O=C(Cn1c(=O)[nH]c2ccncc2c1=O)N[C@H]1CCc2cc(F)cc(F)c21` (single isomer, unassigned) [Compound 44], in experiment [1], the “Rabbit Psoas EC25 (Y75 value)” value was found to be 1.145 µM. Also, the “Porcine Ventricle EC25 (Y75 value)” value in experiment [2] is 100 µM. Besides, the “Porcine Atria EC25 (Y75 value)” value in experiment [3] came out at 36.5 µM.
Taken in the same sequence, the figures for `C[C@H](NC(=O)Cn1c(=O)[nH]c2cccc(O)c2c1=O)c1ccc(F)cc1F` [Compound 72, (S)-N-(1-(2,4-difluorophenyl)ethyl)-2-(5-hydroxy-2,4-dioxo-1,4-dihydroquinazolin-3(2H)-yl)acetamide] were 0.019 µM, 0.2524 µM and 0.1151 µM.
In the case of `C[C@H](NC(=O)Cn1c(=O)[nH]c2c(Cl)cccc2c1=O)c1ccc(F)cc1F` [Compound 408, (S)-2-(8-chloro-2,4-dioxo-1,4-dihydroquinazolin-3(2H)-yl)-N-(1-(2,4-difluorophenyl)ethyl)acetamide], the “Rabbit Psoas EC25 (Y75 value)” value in experiment [1] came out at 100 µM. Also, the “Porcine Ventricle EC25 (Y75 value)” value in experiment [2] was found to be 100 µM. In experiment [3], the “Porcine Atria EC25 (Y75 value)” value amounted to 100 µM.

The record behind these values is patent publication US12559464B2, “Quinazolinone dione compounds and uses thereof” (Edgewise Therapeutics, Inc., priority 2023, dated 2026).
